Results reported in PMC7052086, “Functional characterization of NADPH-cytochrome P450 reductase and cinnamic acid 4-hydroxylase encoding genes from Scoparia dulcis L” (Botanical Studies, 2020).

Biological target: T1, SdC4H (CYP73A111) with SdCPR (Scoparia dulcis, UniProt U5N2L3)
T1 construct: gene C4H; full-length ORF in pET28b, His-tagged, E. coli BL21(DE3), crude soluble fraction; redox partner recombinant SdCPR (GenBank KF306080) added; with NADPH--cytochrome P450 reductase
Test: HPLC detection of 4-hydroxylated product
Assay type: biochemical
Conditions: 1 mM trans-cinnamic acid, 2 mM NADPH, recombinant SdCPR, 50 mM phosphate pH 7.4, 30 °C, 30 min

T1 sequence (U5N2L3 entry or part of it): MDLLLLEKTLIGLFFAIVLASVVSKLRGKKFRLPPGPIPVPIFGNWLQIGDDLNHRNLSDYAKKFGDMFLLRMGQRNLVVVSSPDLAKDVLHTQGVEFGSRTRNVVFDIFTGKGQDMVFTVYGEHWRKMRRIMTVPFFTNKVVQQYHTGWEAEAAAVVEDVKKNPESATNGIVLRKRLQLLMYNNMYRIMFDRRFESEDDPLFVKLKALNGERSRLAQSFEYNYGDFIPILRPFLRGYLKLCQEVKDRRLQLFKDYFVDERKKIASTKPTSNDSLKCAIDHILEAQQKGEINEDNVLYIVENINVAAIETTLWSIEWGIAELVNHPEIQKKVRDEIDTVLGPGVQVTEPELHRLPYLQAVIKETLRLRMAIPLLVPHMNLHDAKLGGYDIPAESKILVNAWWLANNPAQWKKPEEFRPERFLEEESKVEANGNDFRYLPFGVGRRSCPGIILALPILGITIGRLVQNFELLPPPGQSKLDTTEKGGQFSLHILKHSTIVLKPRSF
T1 sequence (U5N352 entry or part of it, further chain): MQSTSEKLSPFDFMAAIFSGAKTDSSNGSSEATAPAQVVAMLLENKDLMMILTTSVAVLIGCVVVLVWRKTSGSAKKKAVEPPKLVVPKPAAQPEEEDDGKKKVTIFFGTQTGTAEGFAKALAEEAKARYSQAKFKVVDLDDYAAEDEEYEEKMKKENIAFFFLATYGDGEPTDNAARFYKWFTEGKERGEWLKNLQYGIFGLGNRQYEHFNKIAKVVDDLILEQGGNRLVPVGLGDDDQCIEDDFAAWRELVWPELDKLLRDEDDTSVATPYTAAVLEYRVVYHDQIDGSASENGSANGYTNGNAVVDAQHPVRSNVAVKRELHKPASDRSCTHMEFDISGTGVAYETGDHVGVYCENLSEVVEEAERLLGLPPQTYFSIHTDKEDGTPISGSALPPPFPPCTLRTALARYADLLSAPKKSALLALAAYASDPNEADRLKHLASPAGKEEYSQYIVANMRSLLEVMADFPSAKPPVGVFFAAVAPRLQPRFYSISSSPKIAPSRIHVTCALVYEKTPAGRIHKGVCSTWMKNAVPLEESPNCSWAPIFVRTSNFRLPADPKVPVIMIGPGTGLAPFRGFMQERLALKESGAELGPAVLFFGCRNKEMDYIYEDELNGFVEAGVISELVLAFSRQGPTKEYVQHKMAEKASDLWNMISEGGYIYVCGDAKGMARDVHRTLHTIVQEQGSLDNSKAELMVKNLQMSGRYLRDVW

O=C(O)/C=C/c1ccccc1 [trans-cinnamic acid]
HPLC detection of 4-hydroxylated product: the C4H activity (trans-cinnamic acid was 4-hydroxylated) of recombinant SdC4H was detected by HPLC
